According to patent US20050130232A1, “Methods of screening for compounds that modulate hormone receptor activity” (Allergan, Inc., priority 2001, published 2005):
Where no end group is shown, it is not given here. [ ]: non-standard residue; d: D form. hArg = N=C(N)NCCCC[C@H](N)C(=O)O

test system: RAR receptors; test: not given; details: cited from earlier work

| Molecule | binding to RAR receptors |
| --- | --- |
| CC1=C(/C=C/C(C)=C/C=C/C(C)=C/C(=O)O)C(C)(C)CCC1 [ATRA, All trans-retinoic acid] | physiological hormone for the RAR receptors |
| C/C(=C\c1ccc(C(=O)O)cc1)c1ccc2c(c1)C(C)(C)CCC2(C)C [TTNPB] | binds RARs |
| Cc1cc2c(cc1C1(c3ccc(C(=O)O)cn3)CC1)C(C)(C)CCC2(C)C [LG 100268] | not to any of the RAR isotypes |
| CC(C)=C(c1ccc(C(=O)O)cc1)c1ccc2c(c1)C(C)(C)CCC2(C)C [SR 11217] | not to any of the RAR isotypes |
| CC1=C(/C=C/C(C)=C\C=C\C(C)=C\C(=O)O)C(C)(C)CCC1 [9-cis RA, 9-cis-retinoic acid] | binds to the RAR receptors |
| CC1(C)CCC(C)(C)c2cc(C3(c4ccc(C(=O)O)cc4)OCCO3)ccc21 [SR 11237] | not to any of the RAR isotypes |

same assay, conditions: in vitro binding assays; cited from earlier work

| Molecule | RAR isotype selectivity |
| --- | --- |
| CC1(C)CCC(C)(C)c2cc(NC(=O)c3ccc(C(=O)O)cc3)ccc21 [Am 80] | RARα-selective |
| CC1(C)CCC(C)(C)c2cc(C(=O)Nc3ccc(C(=O)O)cc3)ccc21 [Am 580] | RARα-selective |
| CC1(C)CCSc2ccc(C#Cc3ccc(C(=O)O)cn3)cc21 [AGN 190299] | RARβ/γ selective |

test system: protein kinase A; test: not given; details: selected protein kinase A synthetic substrates; cited from earlier work

| Molecule | Km [µM] |
| --- | --- |
| R R A S L G (RRASLG) [SEQ ID NO.: 95, protein kinase A synthetic substrate] | 26 |
| V L Q A R R G S S I P Q (VLQARRGSSIPQ) [SEQ ID NO.: 104, protein kinase A synthetic substrate] | 11 |
| V L Q R R R G T S I P Q (VLQRRRGTSIPQ) [SEQ ID NO.: 108, protein kinase A synthetic substrate] | 39 |
| R T K R S G S V (RTKRSGSV) [SEQ ID NO.: 99, protein kinase A synthetic substrate] | 21 |
| LRRASLG [SEQ ID NO.: 94, L R R A S L G] | 16 |
| L R R A S L (LRRASL) [SEQ ID NO.: 96, protein kinase A synthetic substrate] | 57 |
| R R A S V A (RRASVA) [SEQ ID NO.: 92, protein kinase A synthetic substrate] | 20 |
| L R K A S L G (LRKASLG) [SEQ ID NO.: 100, protein kinase A synthetic substrate] | 260 |
| R R A S V (RRASV) [SEQ ID NO.: 93, protein kinase A synthetic substrate] | 24 |
| V L Q A R R G T S I P Q (VLQARRGTSIPQ) [SEQ ID NO.: 109, protein kinase A synthetic substrate] | 139 |
| G R G L S L S R (GRGLSLSR) [SEQ ID NO.: 90, protein kinase A synthetic substrate] | 240 |
| L R R A S V A (LRRASVA) [SEQ ID NO.: 91, protein kinase A synthetic substrate] | > 10 |
| R R A S F (RRASF) [SEQ ID NO.: 111, protein kinase A synthetic substrate] | 13 |
| V L Q R R R G S S I P Q (VLQRRRGSSIPQ) [SEQ ID NO.: 97, protein kinase A synthetic substrate] | 4 |
| L X^aR A S L G (L[hArg]RASLG) [SEQ ID NO.: 102, protein kinase A synthetic substrate, X = homoarginine] | 350 |
| A R T K R S G S V (ARTKRSGSV) [SEQ ID NO.: 98, protein kinase A synthetic substrate] | 10 |
| R T G R S G S V (RTGRSGSV) [SEQ ID NO.: 106, protein kinase A synthetic substrate] | 140 |
| R R A S I (RRASI) [SEQ ID NO.: 112, protein kinase A synthetic substrate] | 7 |
| V L Q R R R P T S I P Q (VLQRRRPTSIPQ) [SEQ ID NO.: 110, protein kinase A synthetic substrate] | 118 |
| L H R A S L G (LHRASLG) [SEQ ID NO.: 101, protein kinase A synthetic substrate] | 415 |

molecular target: Flag-tagged PH-RXRα (Flag tag, pleckstrin homology domain of human insulin receptor substrate-1, human RXRα) (UniProt P35568); test: not given; details: not given

| Molecule | protein kinase A activity in anti-Flag immunoprecipitates (substrate SEQ ID NO: 59), with against without AGN194204 |
| --- | --- |
| catalytic subunit of murine protein kinase A (expressed from pFC-PKA, Stratagene) | Immunoprecipitates prepared with anti-Flag antibody showed a dramatic increase in the amount of protein kinase A activity |

test system: RXR receptors; test: not given; details: cited from earlier work

| Molecule | binding to RXR receptors |
| --- | --- |
| CC1=C(/C=C/C(C)=C/C=C/C(C)=C/C(=O)O)C(C)(C)CCC1 [ATRA, All trans-retinoic acid] | does not bind the RXR receptors |
| C/C(=C\c1ccc(C(=O)O)cc1)c1ccc2c(c1)C(C)(C)CCC2(C)C [TTNPB] | not RXRs |
| Cc1cc2c(cc1C1(c3ccc(C(=O)O)cn3)CC1)C(C)(C)CCC2(C)C [LG 100268] | binding to all three RXRs |
| CC(C)=C(c1ccc(C(=O)O)cc1)c1ccc2c(c1)C(C)(C)CCC2(C)C [SR 11217] | binding to all three RXRs |
| CC1=C(/C=C/C(C)=C\C=C\C(C)=C\C(=O)O)C(C)(C)CCC1 [9-cis RA, 9-cis-retinoic acid] | RXR receptor ligand |
| CC1(C)CCC(C)(C)c2cc(C3(c4ccc(C(=O)O)cc4)OCCO3)ccc21 [SR 11237] | binding to all three RXRs |

molecular target: T1, RXR-associated protein kinase in Flag-RXR immunocomplexes (Homo sapiens, UniProt P19793); test: In vitro kinase reaction with [γ-32P]ATP on Flag-RXR immunocomplexes from transfected HEK 293 cells; assay type: cell-based; details: transfected HEK 293 cells treated with ligand before anti-Flag immunoprecipitation
T1 construct: expressed in transfected cells; host or cells: HEK 293
T1 sequence (P19793 1-462): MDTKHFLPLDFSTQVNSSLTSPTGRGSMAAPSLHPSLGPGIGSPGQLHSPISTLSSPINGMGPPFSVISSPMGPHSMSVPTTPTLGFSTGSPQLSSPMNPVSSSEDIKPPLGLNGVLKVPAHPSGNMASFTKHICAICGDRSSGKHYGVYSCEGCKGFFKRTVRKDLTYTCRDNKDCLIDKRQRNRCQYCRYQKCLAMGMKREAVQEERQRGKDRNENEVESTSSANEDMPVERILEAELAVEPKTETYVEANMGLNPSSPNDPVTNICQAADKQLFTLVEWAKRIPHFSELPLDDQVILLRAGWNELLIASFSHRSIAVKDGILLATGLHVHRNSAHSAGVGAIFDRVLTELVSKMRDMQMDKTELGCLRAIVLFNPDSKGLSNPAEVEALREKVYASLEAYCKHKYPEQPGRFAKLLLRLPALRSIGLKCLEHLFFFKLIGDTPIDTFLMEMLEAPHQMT
From the text: Total cell lysates were immunoprecipitated with anti-Flag antibody (M2). Aliquots of the immunocomplexes were used for the in vitro kinase reaction with [γ-^32P]ATP and separated on SDS-PAGE. Phosphorylated proteins were detected by autoradiography (top panel). Additional aliquots of the immunocomplexes were subjected to immunoblotting with polyclonal anti-RXR antisera (D20; bottom panel). (B) Phosphoamino acid analysis. Flag-RXR and the 160-kDa protein were phosphorylated in vitro and separated on SDS-PAGE as described above, then transferred onto PVDF membrane, detected by autoradiography, and cut out for hydrolysis with acid (6 N HCl). The phosphorylated amino acids and standards (P-Ser, P-Thr, and P-Tyr) were separated by thin-layer chromatography. Positions of the standards P-Ser, P-Thr, and P-Tyr were visualized by ninhydrin staining and are indicated by arrows. (C) In vivo metabolic labeling of transfected HEK 293 cells. […] Cells were washed with phosphate-free medium and starved for 90 minutes before incubation with [^32P]orthophosphate for another 4 hours. […] Total cell lysates were immunoprecipitated with anti-Flag antibody (M2) and subjected to separation on SDS-PAGE. Phosphorylated proteins were detected by autoradiography.
Total cell lysates were subjected to immunoprecipitation, and the in vitro kinase reaction performed as described above.
Cell lysis, immunoprecipitation with anti-Flag (M2), in vitro kinase assay, and detection of the phosphorylated proteins in the RXRα immunoprecipitated complexes were performed as described above.
Cell culture and transient transfection was performed as follows. HEK 293 cells were grown in Dulbecco's modified Eagle's medium (DMEM) supplemented with 10% fetal bovine serum (FBS), 100U of penicillin per ml and 10 μg of streptomycion per ml at 37° C. in 5% CO2. For expression of RXR protein, 100-mm dishes of cells were transfected at 50% confluence with 2 μg of plasmid DNA using Lipofectamine (Life Technologies) as specified by the manufacturer. At 32 hours post-transfection, cells were starved by incubating in DMEM medium with 2.5% charcoal-treated fetal bovine serum or 0.1-0.5% calf bovine serum overnight, and then treated with indicated agents. Cells were harvested by aspirating medium, rinsing in phosphate buffered saline (PBS), and extracting into Lysis Buffer (30 mM Tris-HCL, pH 7.4, 0.5% Nonidet P-40, 10% glycerol, 150 mM NaCl, 1 mM EDTA, 40 mM NaF, 1 mM sodium orthovanadate, and 0.5 mM phenylmethylsufonyl fluoride, and 1× protease inhibitors, (Roche Diagnostics) or 1×SDS Sample Buffer.
Immunoprecipitation was performed essentially as follows. Cells were solubilized in cold Lysis Buffer and subsequently clarified by centrifugation at 20,000 g for 10 minutes at 4° C. Immunoprecipitations were performed at 4° C. by incubating clarified cell extracts with the indicated antibodies (2 μg/ml) and protein A/G-agarose beads (1:30 dilution of a 50% suspension) on a rotating wheel for 4 hours to overnight. Agarose beads were pelleted by low speed centrifugation and washed extensively with ice-cold Lysis Buffer.
Protein kinase assays were performed as follows. Immunoprecipitated complexes were resuspended in 15 μl of Kinase Assay Buffer (30 mM Tris-HCl, pH 7.4 and 10 mM MgCl2). Kinase reactions were initiated by addition of 2.5 μl of 50 μM [γ-^32P]ATP (10 μCi) to the immune-complexes, followed by incubation at 25° C. with occasional shaking for 20 minutes, and terminated by addition of 6 μl 4×SDS Sample Buffer. After heating at 100° C. for 5 minutes, the reaction mixtures were resolved by 4-12% SDS-PAGE. Incorporation of ^32P into RXR or other proteins was determined by autoradiography.

| Molecule | phosphorylation of RXR and 160 kDa protein in Flag-RXR immunocomplexes |
| --- | --- |
| CCCCCCOc1c(\C(C)=C/C=C/C(C)=C/C(=O)O)cc(C(C)C)cc1C(C)C [AGN195393] | neither RXR nor the 160 kDa protein was phosphorylated |
| CCC[C@]1(c2ccc3c(c2)C(C)(C)CCC3(C)C)C[C@H]1/C=C/C(C)=C/C(=O)O [AGN195203] | contained a kinase phosphorylated RXR and a 160 kDa protein |
| C/C(=C\c1ccc(C(=O)O)cc1)c1ccc2c(c1)C(C)(C)CCC2(C)C [TTNPB] | neither RXR nor the 160 kDa protein was phosphorylated |
| CC1(C)CCC(C)(C)c2c1cc(C(=O)Nc1cc(F)c(C(=O)O)c(F)c1)c(O)c2Cl [AGN195183] | not stimulated |
| CC1(C)CCC(C)(C)c2cc(C3(c4ccc(C(=O)O)cn4)CC3)ccc21 [AGN195029] | contained a kinase phosphorylated RXR and a 160 kDa protein |
| CC[C@]1(c2ccc3c(c2)C(C)(C)CCC3(C)C)C[C@H]1/C=C/C(C)=C/C(=O)O [AGN195184] | contained a kinase phosphorylated RXR and a 160 kDa protein |
